Assay results taken from patent US20040228820A1, “Compositions comprising an amidine and an alkane polyol” (The Procter & Gamble Company, priority 2003, published 2004).

Test: Stabilisation of amidines in aqueous solution by alkane polyols
Source text: The compositions of the present invention also comprise an alkane polyol having an N-octanol/water partition coefficient (ClogP) of from +0.2 to +1.55. […] The ClogP values of these materials indicate their hydrophilic/lipophilic balance. Alkane polyols having a ClogP value of between +0.2 and +1.55 are slightly lipophilic, enabling them to interact with the amidines. However, the alkane polyols herein maintain a high enough solubility in water due to the presence of the hydroxy moieties to allow them to maintain the amidine in solution.

Compound | Stabilises Amidines?
OCCCCCCCO [1,7-heptanediol] | Yes
CC(O)CCC(C)O (centres unmarked) [2,5-hexanediol] | No
OCCCCCCCCCCO [1,10-decanediol] | No
CCCC(O)CO (centres unmarked) [1,2 Pentanediol] | No
CCCCCC(O)CO (centres unmarked) [1,2-heptanediol] | Yes

Second part, the compound after the results:

Stabilises Amidines? | Compound
Yes | CCCCCCC(O)CO (centres unmarked) [1,2-octanediol]
Yes | CCCCC(O)CO (centres unmarked) [1,2-hexanediol]
Yes | OCCCCCCCCCO [1,9-nonanediol]
